From EP2677026A1, “Keratinocyte minimal growth medium and use thereof in an in vitro method for identifying compounds capable of improving skin and hair physiology” (Merz Pharma GmbH & Co. KGaA, priority 2012, dated 2013)
Like-named read-outs stand apart in the source and are kept apart here.

Assays:
[1] = test system: NHEK (normal human epidermal keratinocytes); assay: Minimal growth assay: metabolic activity by resazurin assay of NHEK cultivated in minimal growth medium (MGM) plus test compound; type: cell-based; settings: for metabolic activity/cell number compared to the MGM control: highest value of the dose-dependent increase; for dose-depending increase of metabolic activity/cell number compared to the MGM control: 48 h and 72 h, increasing concentrations in MGM; for activity at 100 µM: 100 µm test compound
Experimental: Metabolic activity was measured by a resazurin assay. In this assay, non-fluorescent resazurin is reduced to fluorescent resorufin in viable cells only. The resulting signal is proportional to the number of cells present and, thus, is an indirect measure of cell number. The assay was carried out by diluting a resazurin (Sigma) stock solution (0,1 mg/ml in PBS) in the respective culture medium at a ratio of 1:11. The resazurin conversion to the fluorescent resorufin by metabolically active cells was recorded at 560Ex/590Em nm using a Synergy™ H4 plate reader (BioTek Instruments). Mean values of relative fluorescence/luminescence units (RFU/RLU) and standard deviation of replicates were analysed by Gene5 software. […] Statistical significance was assessed by comparing mean (+/-SD) values with Student's t-test for independent groups. NHEK were seeded at 30.000 cells/cm^2 into 48-well flat bottom tissue culture plates and cultured in normal keratinocyte growth medium ("GM") at 37°C and 5% CO2. After 12 to 15 h (typically over night) the media was exchanged to MGM with different concentrations of test compound. Controls receive MGM without compounds. Test compounds 1 to 4 (1: […] Ca^2+-pantothenate; 4: folic acid) were prepared according to Table 1 to yield respective stock solutions. The stock solutions were further diluted in minimal growth media (MGM) to obtain different test compound concentrations. […] The negative control wells contained media only plus the respective solvent. Table 1. Test compound and control solutions […] The test compounds were dissolved in DMSO, diluted into MGM and added to the cells. 4 to 6 replicates/concentration were tested. […] Metabolic activity after 48 h (see FIG. 4) and 72 h after incubation (see FIG. 5) was determined by the resazurin assay, and proliferation after 48 h and 72 h after incubation was measured using the CyQuant® Direct Cell Proliferation Assay kit (data not shown).

[2] = test system: NHEK (normal human epidermal keratinocytes); assay: Minimal growth assay: proliferation by DNA amount (CyQuant Direct Cell Proliferation Assay kit) of NHEK in MGM plus test compounds; type: cell-based; settings: NHEK in MGM plus single compound or combination; MGM control set 100%
Experimental: Alternatively, cell number was directly assessed by measuring the amount of DNA using the CyQuant® Direct Cell Proliferation Assay kit (Invitrogen). In brief, the two CyQuant® kit solutions were mixed and added to the respective culture medium as described by the supplier. The fluorescence of the DNA intercalating CyQuant® Dye, representing the amount of cells, was recorded at 480Ex/535Em nm using a Synergy™ H4 plate reader (BioTek Instruments). Increase of the number of cells is used as indirect indicator of cell proliferation.
Mean values of relative fluorescence/luminescence units (RFU/RLU) and standard deviation of replicates were analysed by Gene5 software. For a better estimation of test compound's potential metabolic activity and proliferation measured in MGM were set as 100%. Statistical significance was assessed by comparing mean (+/-SD) values with Student's t-test for independent groups.
For measurements of metabolic activity and proliferation, NHEK were seeded at 30,000 cells/cm^2 into a 48-well microtiter flat bottom plate. After over night incubation growth medium 2 was replaced by BM, MGM, and MGM plus test compounds. The test compounds were dissolved in DMSO, diluted into MGM and added to the cells. 4 to 6 replicates/concentration were tested. […]

[3] = after 48 h, MGM control set 100%
[4] = after 72 h, MGM control set 100%
[5] = Homo sapiens, NHEK, after 72 h, MGM control set 100%, read-out: metabolic activity compared to the MGM control

Row | Structure (SMILES) | metabolic activity/cell number compared to the MGM control [1, 3] | metabolic activity/cell number compared to the MGM control [1, 4] | proliferation (DNA amount) compared to the MGM control [2] [%] | dose-depending increase of metabolic activity/cell number compared to the MGM control [1] | activity at 100 µM ([1]; Homo sapiens, NHEK, after 48 h, MGM control set 100%, read-out: metabolic activity compared to the MGM control) [%] | activity at 100 µM [1, 5] [%] | activity at 5 µM ([1]; Homo sapiens, NHEK, 5 µm test compound, after 48 h, MGM control set 100%, read-out: metabolic activity compared to the MGM control) [%]
1 | Cc1ncc(C[n+]2csc(CCO)c2C)c(N)n1 [Thiamin, thiamine] | up to 138% | up to 163% | – | – | – | – | –
2 | N[C@@H](CSSC[C@H](N)C(=O)O)C(=O)O [L-cystine] | up to 265% | up to 419% | 282 | – | – | – | –
3 | Nc1nc2ncc(CNc3ccc(C(=O)N[C@@H](CCC(=O)O)C(=O)O)cc3)nc2c(=O)[nH]1 [folic acid] | – | – | – | did not demonstrate a dose-depending increase | 113 | 118 | –
4 | CC(C)(CO)[C@@H](O)C(=O)NCCC(=O)O [pantothenate, Ca^2+-pantothenate] | – | – | – | did not show a dose-depending increase | – | 110 | 111
